Reference: patent US7851474B2, “Dipiperazinyl ketones and related analogues” (Neurogen Corporation, priority 2005, dated 2010)

The compounds below were run against T1, chimeric human H3 receptor (Homo sapiens, UniProt Q9Y5N1, E19D) (assay: Chimeric human H3 receptor GTP binding assay (agonist-stimulated GTP-gamma35S binding, Example 7)). Conditions: Table II; assay of Example 7; "*" in Ki; read-out: Ki.
T1 construct: made in house; host or cells: Sf9 insect cells (baculovirus infection); P2 membrane preparation
T1 sequence (Q9Y5N1 with tags, fused parts or gaps E19D): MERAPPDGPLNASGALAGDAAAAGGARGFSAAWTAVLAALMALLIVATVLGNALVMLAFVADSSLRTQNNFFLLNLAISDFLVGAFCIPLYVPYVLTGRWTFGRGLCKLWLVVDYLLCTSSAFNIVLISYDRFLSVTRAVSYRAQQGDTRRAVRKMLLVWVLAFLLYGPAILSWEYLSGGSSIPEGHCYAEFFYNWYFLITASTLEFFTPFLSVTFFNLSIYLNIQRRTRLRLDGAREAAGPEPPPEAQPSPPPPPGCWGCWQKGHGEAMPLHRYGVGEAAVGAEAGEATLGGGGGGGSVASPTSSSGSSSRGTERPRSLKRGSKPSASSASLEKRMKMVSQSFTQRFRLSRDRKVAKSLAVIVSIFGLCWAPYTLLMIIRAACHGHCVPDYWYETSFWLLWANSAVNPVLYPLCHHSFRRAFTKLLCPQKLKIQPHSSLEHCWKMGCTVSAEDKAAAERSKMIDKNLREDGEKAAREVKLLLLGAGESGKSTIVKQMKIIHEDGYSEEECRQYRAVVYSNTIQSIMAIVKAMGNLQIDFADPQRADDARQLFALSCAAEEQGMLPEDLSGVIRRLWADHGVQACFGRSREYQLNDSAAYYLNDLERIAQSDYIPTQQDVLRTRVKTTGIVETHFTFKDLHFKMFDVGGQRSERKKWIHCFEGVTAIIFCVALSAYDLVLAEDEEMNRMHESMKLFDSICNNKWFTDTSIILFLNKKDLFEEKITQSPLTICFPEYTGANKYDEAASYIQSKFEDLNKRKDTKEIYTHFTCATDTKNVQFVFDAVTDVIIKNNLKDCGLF
Assay type: biochemical
How it was run: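 IC50 values come from non-linear regression of dose-response curves of filter-bound GTP-gamma^35S, counted by scintillation. Membranes were from infected Sf9 cells carrying receptor plus G-protein subunits, 35 μg/tube, with 10 μM GDP present.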

Ki, < 1000 nM:
O=C(CN1CCN(c2ccc(-c3cccc4c3oc3ccccc34)nn2)CC1)N1CCN(C2CCC2)CC1 [Compound 1044, 3-{4-[2-(4-cyclobutylpiperazin-1-yl)-2-oxoethyl]piperazin-1-yl}-6-dibenzo[b,d]furan-4-ylpyridazine]
COc1ccc(F)cc1-c1ccc(N2CCN(CC(=O)N3CCN(C4CCC4)CC3)CC2)nn1 [Compound 1045, 3-{4-[2-(4-cyclobutylpiperazin-1-yl)-2-oxoethyl]piperazin-1-yl}-6-(5-fluoro-2-methoxyphenyl) pyridazine]
COc1ccc(C)cc1-c1ccc(N2CCN(CC(=O)N3CCN(C4CCC4)CC3)CC2)nn1 [Compound 1046, 3-{4-[2-(4-cyclobutylpiperazin-1-yl)-2-oxoethyl]piperazin-1-yl}-6-(2-methoxy-5-methylphenyl) pyridazine]
O=C(CN1CCN(c2ccc(-c3ccccc3Oc3ccccc3)nn2)CC1)N1CCN(C2CCC2)CC1 [Compound 1047, 3-{4-[2-(4-cyclobutylpiperazin-1-yl)-2-oxoethyl]piperazin-1-yl}-6-(2-phenoxyphenyl) pyridazine]
O=C(CN1CCN(c2ccc(-c3cc(F)ccc3F)nn2)CC1)N1CCN(C2CCC2)CC1 [Compound 1048, 3-{4-[2-(4-cyclobutylpiperazin-1-yl)-2-oxoethyl]piperazin-1-yl}-6-(2,5-difluorophenyl)pyridazine]
O=C(CN1CCN(c2ccc(-c3ccc(F)c(F)c3)nn2)CC1)N1CCN(C2CCC2)CC1 [Compound 1049, 3-{4-[2-(4-cyclobutylpiperazin-1-yl)-2-oxoethyl]piperazin-1-yl}-6-(3,4-difluorophenyl)pyridazine]
O=C(CN1CCN(c2ccc(-c3cc(Cl)cc(Cl)c3)nn2)CC1)N1CCN(C2CCC2)CC1 [Compound 1050, 3-{4-[2-(4-cyclobutylpiperazin-1-yl)-2-oxoethyl]piperazin-1-yl}-6-(3,5-dichlorophenyl)pyridazine]
O=C(CN1CCN(c2ccc(-c3ccc(Cl)c(Cl)c3)nn2)CC1)N1CCN(C2CCC2)CC1 [Compound 1051, 3-{4-[2-(4-cyclobutylpiperazin-1-yl)-2-oxoethyl]piperazin-1-yl}-6-(3,4-dichlorophenyl)pyridazine]
O=C(CN1CCN(c2ccc(-c3cc(F)cc(F)c3)nn2)CC1)N1CCN(C2CCC2)CC1 [Compound 1052, 3-{4-[2-(4-cyclobutylpiperazin-1-yl)-2-oxoethyl]piperazin-1-yl}-6-(3,5-difluorophenyl)pyridazine]
O=C(CN1CCN(c2ccc(-c3cccc(F)c3F)nn2)CC1)N1CCN(C2CCC2)CC1 [Compound 1053, 3-{4-[2-(4-cyclobutylpiperazin-1-yl)-2-oxoethyl]piperazin-1-yl}-6-(2,3-difluorophenyl)pyridazine]
O=C(CN1CCN(c2ccc(-c3cccc(Cl)c3Cl)nn2)CC1)N1CCN(C2CCC2)CC1 [Compound 1054, 3-{4-[2-(4-cyclobutylpiperazin-1-yl)-2-oxoethyl]piperazin-1-yl}-6-(2,3-dichlorophenyl)pyridazine]
O=C(CN1CCN(c2ccc(-c3ccc(Cl)cc3Cl)nn2)CC1)N1CCN(C2CCC2)CC1 [Compound 1055, 3-{4-[2-(4-cyclobutylpiperazin-1-yl)-2-oxoethyl]piperazin-1-yl}-6-(2,4-dichlorophenyl)pyridazine]
O=C(CN1CCN(c2ccc(-c3ccccc3C(F)(F)F)nn2)CC1)N1CCN(C2CCC2)CC1 [Compound 1056, 3-{4-[2-(4-cyclobutylpiperazin-1-yl)-2-oxoethyl]piperazin-1-yl}-6-[2-(trifluoromethyl)phenyl] pyridazine]
